The values below come from patent publication US7786140B2, “Piperidine derivative having NMDA receptor antagonistic activity” (Shionogi & Co., Ltd., priority 2003, dated 2010).

One experiment relates to ICR type male mice. The experiment is described as follows: Analgesic effect in mouse formalin test. The experiment is classed as in vivo. Particulars: for ED50: Mus musculus, injected into the vein 5 minutes before 2% formalin. The method, then: Analgesic Effect in Mouse Formalin Test
The pain behavior attributed to formalin can be classified into two time-dependent phases and mice show pain behaviors, so-called licking and biting. In the first phase, acute pain was caused within 5 minutes immediately after formalin administration, and in the second phase, inflammatory pain was caused for 20 minutes from 10 to 30 minutes after the administration. ICR type male mice (5-week old) were used for the experiment. Formalin (2%) was subcutaneously injected to the right hind paw of the mice. The test compound (18) was dissolved in a solution, DMSO:HCO50:saline=1.5:1:7.5 and injected in difference concentrations into the vein 5 minutes before the formalin administration. The pain behavior time was measured for 30 minutes after formalin administration. The pain behavior time is to be shortened in the case the test compound causes analgesic effect. The measured time is substituted in the following equation to calculate the analgesic ratio (%) and the dose for 50% efficacy (ED50) was calculated. Analgesic ratio (%)=[…]

The target in a further experiment is NR1/NR2A receptor (Mus musculus, UniProt P35436+P35438). In words: Electric physiological experiment: NMDA-induced inward current in Xenopus laevis oocytes expressing NMDA receptor subunits. Type of experiment: cell-based. Particulars: NMDA 100 μM and glycine 10 μM, -60 mV. The method, then:
(§1) Expression and Electric Physiological Experiment of NMDA Receptor
(§2) Messenger RNA (mRNA) was transcribed with complementary DNA (cDNA) of mouse NMDA receptor subunits and the mRNA was injected in oocytes of Xenopus Laevis. From two days after the injection, the inward current induced by NMDA was recorded by two electrode membrane potential fixation apparatus. The injection amount of the mRNA was 0.6/0.6 ng on the basis of NR1/NR2B per one oocyte to co-expression of the subunits. Solutions of the test compound (18) with different concentrations were added to the oocytes and the inward current induced by NMDA was recorded by two electrode membrane potential fixation apparatus. The extercellular solution was Mg^2+-free ND96 (NaCl 96 mM, KCl 2 mM, CaCl2 1.8 mM, and Hepes 5 mM and pH=7.5) and the potential was retained at −60 mV. The NMDA current was induced by using NMDA 100 μM and glycine 10 μM. The measured values of the recorded inward current induced by NMDA were substituted in the following equation to calculate the electric response % and the dose for inhibiting 50% (IC50) were calculated. The IC50 values for the respective NR1/NR2A, C, and D receptors were calculated. Electric response (%)=(inward current induced by NMDA in the presence of the test compound/inward current induced by NMDA in the absence of the test compound)×100

In experiment [1] the target is NR1/NR2B receptor (Mus musculus, UniProt P35438+Q01097). The experiment is described as above. The experiment is classed as cell-based. The procedure: as §1, §2
Another experiment addresses NR1/NR2C receptor (Mus musculus, UniProt P35438+Q01098). Described as above. Type of experiment: cell-based. Particulars: NMDA 100 μM and glycine 10 μM, -60 mV. The procedure:
as §1, §2

The next experiment addresses NR1/NR2D receptor (Mus musculus, UniProt P35438+Q03391). The experiment is described as above. The experiment is classed as cell-based. Particulars: NMDA 100 μM and glycine 10 μM, -60 mV. The method, then: as §1, §2
A further experiment relates to PCP receptor. In words: Experiment of binding to PCP receptor: competitive binding with [3H] MK-801, rat cerebral cortex membrane preparation. The conditions noted are these: for IC50: [3H] MK-801 2 nM, rat cerebral cortex membranes. The method, then: Experiment of Binding to PCP Receptor
MK-801 is reported to bind to PCP receptor and cause psychosis.
(§3) Male Slc: Wistar rats were used and after beheading of the rats, the brains were picked out and the cerebral cortex was fractionated. The cerebral cortex was homogenized with ice-cooled 5 mM Tris-HCl buffer (pH 7.8) in an amount 20 times as much and centrifuged at 4° C. and 27,500×g for 10 minutes. The obtained precipitate was suspended with the same buffer solution and again centrifuged. These steps were repeated three times and the obtained precipitate was suspended with the buffer solution and stored at −80° C. Immediately before the experiment, the stored suspension was thawed at room temperature and centrifuged at 4° C. and 27,500×g for 10 minutes and the obtained precipitate was suspended with the buffer solution. Further the resulting solution was diluted 2.5 times with the buffer solution and the obtained solution was used as a membrane preparation for the experiment.
For the binding experiment, 10 μL of test compounds with different concentrations and 10 μL of marked ligand [^3H] MK-801 were added to 480 μL of the above-mentioned membrane preparation sample and incubated at 25° C. for 60 minutes. The final concentration of [^3H] MK-801 was adjusted to be 2 nM. DMSO, which is a solvent, was used for measurement of the total binding quantity and 10 μM of (+)MK-801 was used for measurement of the non-specific binding quantity. After the incubation, the bonded bodies and the free bodies were separated by Whatman GF/C filter paper (manufactured by Whatman Inc.) and the filter paper was washed four times with 2.5 mL of the ice-cooled buffer solution. The filter paper was immersed in a liquid scintillation in a vial (Clear-Sol I, manufactured by Nacalai Tesque Co., Ltd.) and the radiation dose (dpm) was measured by a liquid scintillation counter. The binding inhibition ratio (%) was calculated from the measured values according to the following equation and the dose for inhibiting 50% binding (IC50) was calculated.
(§4) Binding inhibition ratio (%)=100−[(binding quantity in the presence of the test compound−non-specific binding quantity)/(total binding quantity−non-specific binding quantity)]×100

Experiment [2] deals with T1, NR1/NR2B receptor (Rattus norvegicus, UniProt P35439+Q00960).
T1 construct: the obtained solution was used as a membrane preparation for the experiment; from tissue; host or cells: rat cerebral cortex membrane preparation
In words: Experiment of binding to NMDA receptor: competitive binding with [3H]-Ifenprodil, rat cerebral cortex membrane preparation. The conditions noted are these: [3H]-Ifenprodil 5 nM, GBR-12909 3 μM, rat cerebral cortex membranes. The procedure: Experiment of Binding to NMDA Receptor
Competitive binding assays of the test compounds (10, 18 and 19) were carried out using Ifenprodil, which is an antagonist specific for the NR1/NR2B subtype receptor, as a ligand.
as §3, with “were killed by beheading,” for “were used and after beheading of the rats,”, “ice-cooled 50” for “ice-cooled 5”, “(pH 7.4)” for “(pH 7.8)”, “times of the cerebral cortex” for “times as much”, “diluted 10” for “diluted 2.5”
For the binding experiment, 10 μL of test compounds with different concentrations, 10 μL of [^3H]-Ifenprodil, and 10 μL GBR-12909 were added to 470 μL of the above-mentioned membrane preparation and incubated at icing temperature for 120 minutes. The final concentration of [^3H]-Ifenprodil was adjusted to be 5 nM and the final concentration of GBR-12909 was adjusted to be 3 μM. DMSO, which is a solvent, was used for measurement of the total binding quantity and 100 μM of Ifenprodil was used for measurement of the non-specific binding quantity. In this connection, GBR-12909 was added to block the binding of [^3H]-Ifenprodil to the non-polyamine-sensitive site. After the incubation, the bounded bodies and the free bodies were separated by Whatman GF/C filter paper (Whatman Inc.) and the filter paper was washed four times with 2.5 mL of the ice-cooled buffer solution. The filter paper was immersed in a liquid scintillation (Clear-Sol I, Nacalai Tesque Co., Ltd.) in a vial and the radioactivity (dpm) was measured by a liquid scintillation counter. The binding inhibition ratio (%) was calculated from the measured values according to the following equation and the dose for inhibiting 50% binding (IC50) was calculated.
as §4

Like-named read-outs stand apart in the source and are kept apart here.

T1 sequence (Q00960 27-1482, other chains not shown): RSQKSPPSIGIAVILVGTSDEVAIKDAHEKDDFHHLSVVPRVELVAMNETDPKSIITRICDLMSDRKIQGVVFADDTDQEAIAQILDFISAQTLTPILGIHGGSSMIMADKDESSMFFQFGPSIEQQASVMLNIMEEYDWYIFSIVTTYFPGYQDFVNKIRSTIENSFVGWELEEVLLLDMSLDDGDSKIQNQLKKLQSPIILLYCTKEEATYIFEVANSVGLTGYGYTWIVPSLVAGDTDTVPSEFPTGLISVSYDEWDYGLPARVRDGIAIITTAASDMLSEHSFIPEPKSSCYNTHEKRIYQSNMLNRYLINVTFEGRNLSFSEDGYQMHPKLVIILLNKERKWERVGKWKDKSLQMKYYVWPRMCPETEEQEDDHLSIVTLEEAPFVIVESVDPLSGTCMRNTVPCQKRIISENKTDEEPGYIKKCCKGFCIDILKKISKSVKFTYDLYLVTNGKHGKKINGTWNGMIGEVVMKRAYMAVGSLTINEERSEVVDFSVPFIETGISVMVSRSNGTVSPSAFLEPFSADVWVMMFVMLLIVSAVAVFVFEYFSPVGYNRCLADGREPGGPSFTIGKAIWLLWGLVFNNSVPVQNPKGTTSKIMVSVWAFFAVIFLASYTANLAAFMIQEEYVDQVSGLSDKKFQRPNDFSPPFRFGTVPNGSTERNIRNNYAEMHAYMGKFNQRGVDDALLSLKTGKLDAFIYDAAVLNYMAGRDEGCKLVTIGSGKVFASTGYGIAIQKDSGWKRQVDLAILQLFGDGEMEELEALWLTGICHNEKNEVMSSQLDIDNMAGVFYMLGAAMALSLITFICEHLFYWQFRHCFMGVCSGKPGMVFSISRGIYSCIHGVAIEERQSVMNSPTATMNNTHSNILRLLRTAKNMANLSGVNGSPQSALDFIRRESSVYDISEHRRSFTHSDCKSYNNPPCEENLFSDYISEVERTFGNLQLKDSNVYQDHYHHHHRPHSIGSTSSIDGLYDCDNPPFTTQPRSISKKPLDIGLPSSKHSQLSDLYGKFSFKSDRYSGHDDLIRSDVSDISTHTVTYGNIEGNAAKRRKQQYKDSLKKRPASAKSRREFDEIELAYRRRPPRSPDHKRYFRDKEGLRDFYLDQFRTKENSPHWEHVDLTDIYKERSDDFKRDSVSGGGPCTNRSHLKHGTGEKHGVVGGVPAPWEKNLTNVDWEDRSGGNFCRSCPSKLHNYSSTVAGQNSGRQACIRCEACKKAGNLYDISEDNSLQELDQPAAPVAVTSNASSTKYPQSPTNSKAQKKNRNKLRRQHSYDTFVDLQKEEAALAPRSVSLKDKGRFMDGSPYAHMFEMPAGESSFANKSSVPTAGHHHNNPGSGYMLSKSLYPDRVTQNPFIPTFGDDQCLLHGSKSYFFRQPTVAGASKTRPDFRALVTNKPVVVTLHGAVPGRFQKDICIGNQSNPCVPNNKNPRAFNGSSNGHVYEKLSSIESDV
Chain of NR1/NR2B receptor (Mus musculus, UniProt P35438+Q01097) (Q01097 27-1482, other chains not shown): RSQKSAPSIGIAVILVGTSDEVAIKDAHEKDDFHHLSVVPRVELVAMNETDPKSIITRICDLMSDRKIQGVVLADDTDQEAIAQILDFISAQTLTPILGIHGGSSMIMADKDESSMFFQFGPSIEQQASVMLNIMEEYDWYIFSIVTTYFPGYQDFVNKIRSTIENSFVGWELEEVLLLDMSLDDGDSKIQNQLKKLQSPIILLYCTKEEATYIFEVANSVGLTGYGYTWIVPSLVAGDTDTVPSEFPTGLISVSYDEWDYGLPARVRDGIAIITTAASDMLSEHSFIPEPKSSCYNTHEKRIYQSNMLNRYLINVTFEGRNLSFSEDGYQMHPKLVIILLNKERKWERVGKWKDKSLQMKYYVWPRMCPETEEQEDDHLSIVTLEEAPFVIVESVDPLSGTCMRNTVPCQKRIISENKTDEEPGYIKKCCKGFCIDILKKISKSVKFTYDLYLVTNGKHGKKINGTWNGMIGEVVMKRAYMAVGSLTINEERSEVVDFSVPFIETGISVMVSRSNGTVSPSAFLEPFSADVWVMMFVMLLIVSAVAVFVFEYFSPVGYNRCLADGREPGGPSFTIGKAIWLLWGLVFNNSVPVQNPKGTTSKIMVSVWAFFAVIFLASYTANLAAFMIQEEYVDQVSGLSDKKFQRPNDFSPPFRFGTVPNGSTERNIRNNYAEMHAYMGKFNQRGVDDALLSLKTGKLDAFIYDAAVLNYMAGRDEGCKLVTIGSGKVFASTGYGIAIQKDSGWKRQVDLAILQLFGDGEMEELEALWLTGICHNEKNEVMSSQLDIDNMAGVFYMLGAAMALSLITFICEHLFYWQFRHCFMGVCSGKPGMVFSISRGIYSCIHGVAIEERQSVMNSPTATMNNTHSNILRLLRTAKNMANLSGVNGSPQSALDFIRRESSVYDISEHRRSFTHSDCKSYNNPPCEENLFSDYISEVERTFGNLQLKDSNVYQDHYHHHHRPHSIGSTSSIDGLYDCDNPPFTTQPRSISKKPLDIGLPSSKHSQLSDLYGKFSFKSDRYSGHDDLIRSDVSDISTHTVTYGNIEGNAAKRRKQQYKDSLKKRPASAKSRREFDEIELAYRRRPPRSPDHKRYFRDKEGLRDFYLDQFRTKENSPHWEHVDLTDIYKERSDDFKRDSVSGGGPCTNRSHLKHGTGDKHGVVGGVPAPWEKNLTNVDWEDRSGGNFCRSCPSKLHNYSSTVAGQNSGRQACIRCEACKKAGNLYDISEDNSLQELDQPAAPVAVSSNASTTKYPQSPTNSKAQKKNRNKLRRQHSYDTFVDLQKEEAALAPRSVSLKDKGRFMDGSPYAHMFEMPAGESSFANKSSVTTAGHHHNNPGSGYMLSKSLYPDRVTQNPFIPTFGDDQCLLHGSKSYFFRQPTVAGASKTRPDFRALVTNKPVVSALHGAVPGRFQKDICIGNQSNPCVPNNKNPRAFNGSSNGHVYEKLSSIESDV
Chain of NR1/NR2C receptor (Q01098 20-1239, other chains not shown): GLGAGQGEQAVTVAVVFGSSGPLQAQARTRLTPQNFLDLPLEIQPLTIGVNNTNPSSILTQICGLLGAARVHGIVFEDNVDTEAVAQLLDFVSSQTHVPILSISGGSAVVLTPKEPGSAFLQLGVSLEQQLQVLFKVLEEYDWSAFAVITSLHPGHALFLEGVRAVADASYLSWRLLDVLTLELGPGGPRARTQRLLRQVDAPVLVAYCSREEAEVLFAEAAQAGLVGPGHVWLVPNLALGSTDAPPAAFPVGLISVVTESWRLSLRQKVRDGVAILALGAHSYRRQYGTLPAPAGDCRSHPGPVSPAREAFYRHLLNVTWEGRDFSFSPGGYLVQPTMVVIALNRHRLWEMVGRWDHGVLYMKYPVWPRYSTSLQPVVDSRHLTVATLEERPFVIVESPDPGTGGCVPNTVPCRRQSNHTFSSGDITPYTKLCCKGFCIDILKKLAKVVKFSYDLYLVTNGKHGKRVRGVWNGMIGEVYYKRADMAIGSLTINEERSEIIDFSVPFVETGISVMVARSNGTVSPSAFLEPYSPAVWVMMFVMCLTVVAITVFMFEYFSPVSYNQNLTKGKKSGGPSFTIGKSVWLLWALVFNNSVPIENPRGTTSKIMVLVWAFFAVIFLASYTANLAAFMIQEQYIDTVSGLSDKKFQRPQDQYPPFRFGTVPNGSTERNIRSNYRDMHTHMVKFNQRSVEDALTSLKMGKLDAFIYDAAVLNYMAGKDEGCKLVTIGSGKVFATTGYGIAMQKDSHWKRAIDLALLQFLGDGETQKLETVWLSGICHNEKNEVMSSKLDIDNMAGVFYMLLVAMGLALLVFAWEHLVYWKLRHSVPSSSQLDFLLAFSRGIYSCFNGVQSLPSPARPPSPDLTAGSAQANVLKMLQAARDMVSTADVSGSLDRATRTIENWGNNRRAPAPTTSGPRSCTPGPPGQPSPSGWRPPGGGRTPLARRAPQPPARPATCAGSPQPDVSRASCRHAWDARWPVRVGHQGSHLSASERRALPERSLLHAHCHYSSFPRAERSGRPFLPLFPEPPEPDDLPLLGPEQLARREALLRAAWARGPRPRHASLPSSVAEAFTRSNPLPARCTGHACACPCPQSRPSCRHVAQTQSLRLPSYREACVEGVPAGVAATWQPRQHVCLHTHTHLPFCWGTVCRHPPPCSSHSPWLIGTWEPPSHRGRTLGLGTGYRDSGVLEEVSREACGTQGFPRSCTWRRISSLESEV

Broadly, the ED50 is the dose at which the effect has come halfway, by size or by number of responders. The IC50 is the midpoint of a concentration-inhibition curve. A low value points to greater potency in that assay. In the case of `Cc1ccccc1CC1=CCN(CCCC(=O)c2ccc(O)cc2)CC1` [Compound 18], the ED50 in the experiment with ICR type male mice (acute pain within 5 minutes, read-out: ED50, the first phase) was determined as 1.1 mg/kg; with ICR type male mice (inflammatory pain 10 to 30 minutes, read-out: ED50, the second phase), 0.7 mg/kg. The “analgesic effect (in words)” value in the experiment on ICR type male mice (mouse, in vivo) was “confirmed”. The IC50 at NR1/NR2A receptor was over 30 µM; at NR1/NR2B receptor [1] (NMDA 100 μM and glycine 10 μM, -60 mV, Xenopus oocytes) it was 4.6 µM; against NR1/NR2C receptor, over 30 µM; on NR1/NR2D receptor, over 30 µM; at PCP receptor, 3 µM; on NR1/NR2B receptor [2], 0.004 µM. Besides, at NR1/NR2B receptor [1], the “antagonistic effect on NR1/NR2 subfamilies (in words)” value is on record as “specific antagonistic effect on the NR1/NR2B receptor”. The “competition with MK-801 at the PCP receptor (in words)” value (“competition” for short) in the experiment with PCP receptor is given as “not competitive with MK-801”.
With `O=C(CCCN1CC=C(Cc2ccc(F)cc2)CC1)c1ccc(O)cc1` [Compound 19], the “competition” value in the experiment on PCP receptor is reported as “not competitive with MK-801”. For the same molecule, the IC50 was 10 µM at PCP receptor and 0.002 µM at NR1/NR2B receptor [2].
In the case of `O=C(CCCN1CCC(O)(Cc2ccc(OC(F)(F)F)cc2)CC1)c1ccc(O)cc1` [Compound 10], the “competition” value in the experiment on PCP receptor is on record as “not competitive with MK-801”. The IC50 at PCP receptor amounted to 20 µM; on NR1/NR2B receptor [2], 0.016 µM.
`O=C(CCCN1CC=C(c2ccc(Cl)cc2)CC1)c1ccc(O)cc1` [Compound 32] showed an IC50 at NR1/NR2B receptor [2] of 0.003 µM.
As for `CC(C(O)c1ccc(O)cc1)N1CCC(O)(c2ccccc2)CC1` (racemic) [CP-101606, reference compound], on PCP receptor, the IC50 was determined as 13 µM.
